Holding throughout (type): ADME, organism-based
Data set [1] is described as follows: (§1) Mean pharmacokinetics parameters for Isotretinoin following single oral administration of Isotretinoin to healthy subjects. More on the design: dose 80 mg, route oral. The following applies: human, in vivo, dietary status Fed, dosed compound id 16, dosed compound name ISOTRETINOIN, regimen Single dose, tissue Plasma; for AUC: po, 80 mg.
The subject of data set [2] is Homo sapiens. The data set is described as §1. Also noted: dose 80 mg, route oral. The following applies: in vivo, po, dosed compound id 16, dosed compound name ISOTRETINOIN, regimen Single dose, tissue Plasma.
Data set [3] in a line: (§2) Steady-state pharmacokinetic parameters of Isotretinoin following multiple oral administration of Isotretinoin to 38 pediatric patients, […], after a non-standardised meal. Also noted: route oral. To be noted: human, in vivo, dietary status Fed, dosed compound id 16, dosed compound name ISOTRETINOIN, regimen Multiple dose, tissue Plasma.
The subject of data set [4] is Homo sapiens. The data set is described as §2. More on the design: route oral. The following applies: in vivo, po, dietary status Fed, dosed compound id 16, dosed compound name ISOTRETINOIN, regimen Multiple dose, tissue Plasma.
Setting [5] is: dietary status Fasting, dose 80 mg.

“And” between values parts separate entries of the source, which are not always exact repeats. Equal entries are not always repeated.

The term AUC denotes the area under the concentration-time curve, a measure of exposure. For orientation: Tmax means the time at which the peak concentration occurs. In general, half-life refers to the time in which the quantity being followed falls by half. A low value points to fast loss. Broadly, the Cmax is the highest concentration seen after dosing. The term CL/F denotes clearance divided by bioavailability, as obtained after extravascular dosing. On to `CC1=C(/C=C/C(C)=C/C=C/C(C)=C\C(=O)O)C(C)(C)CCC1` [ISOTRETINOIN], for which the AUC in data set [1] (read-out: AUC(0-12)) turned out to be 3.03 µg·h/mL; in data set [1] (read-out: AUC(0-24)), 6 µg·h/mL; in data set [3] (po, read-out: AUC(0-12)), 5.08 µg·h/mL. The Tmax in data set [1] (dose 80 mg, route oral) was found to be 5.3 h; in the data set on Homo sapiens [2] (setting [5]) it was 3.2 h; in the data set on Homo sapiens [2] (dietary status Fed), 6 h; in data set [3] (route oral) it was 4 h. Also, the half-life is 21 h in data set [1] (dose 80 mg, route oral) and 15.7 h in data set [3] (route oral). For the same molecule, the t1/2 in the data set on Homo sapiens [2] (setting [5]) came to 21 h. The figures for the AUC(0 to inf) with Homo sapiens [2] (dietary status Fasting) and with Homo sapiens [2] (dietary status Fed) were 3.7 µg·h/mL and 10 µg·h/mL, respectively. Besides, the Cmax in the data set with Homo sapiens [2] (dietary status Fasting) is 0.301 µg/mL; in the data set with Homo sapiens [2] (dietary status Fed) it was 0.862 µg/mL and 0.57325 µg/mL; in data set [3] (po), 0.732 µg/mL. This molecule also had a CL/F in data set [3] (route oral) of 299 mL/min. Also, the Css min in the data set on Homo sapiens [4] was 0.35232 µg/mL.
